Measured values taken from ChEMBL document CHEMBL5230157, “The natural anthraquinone dye purpurin exerts antibacterial activity by perturbing the FtsZ assembly” (Bioorg Med Chem, 2021).
Values after ≈ are worked out from the molar mass of the structure shown. Active and inactive are the calls of the source. No cut-off for these calls is given here.

Columns and labels:
HeLa [1] = test: Antiproliferative activity against human HeLa cells assessed as inhibition of cell proliferation at 200 uM incubated for 24 hrs by sulforhodamine B assay; type: functional; set-up: scale not given: the % may be the effect or the level left
HeLa [2] = test: Antiproliferative activity against human HeLa cells assessed as inhibition of cell proliferation incubated for 24 hrs by sulfo-rhodamine B assay; type: functional, cell-based
Bacillus subtilis [3] = test: Antibacterial activity against Bacillus subtilis 168 assessed as bacterial growth inhibition at 5 uM by spectrophotometric method; type: functional; settings: read-out: GI
HeLa [4] = test: Antiproliferative activity against human HeLa cells assessed as inhibition of cell proliferation at 100 uM incubated for 24 hrs by sulforhodamine B assay; type: functional; set-up: scale not given: the % may be the effect or the level left
Escherichia coli = test: Antibacterial activity against Escherichia coli XL1 assessed as bacterial growth inhibition at 150 uM by spectrophotometric method; type: functional; settings: read-out: GI
[5] = target: T1, Cell division protein FtsZ (Bacillus subtilis) (UniProt A5Z1V5); test: Inhibition of Bacillus subtilis PL642 GFP-tagged FtsZ assessed as decrease FtsZ ring at mid bacterial cells at 7 uM for 4 hrs by immunostaining based fluorescent microscopy
T1 sequence (whole entry): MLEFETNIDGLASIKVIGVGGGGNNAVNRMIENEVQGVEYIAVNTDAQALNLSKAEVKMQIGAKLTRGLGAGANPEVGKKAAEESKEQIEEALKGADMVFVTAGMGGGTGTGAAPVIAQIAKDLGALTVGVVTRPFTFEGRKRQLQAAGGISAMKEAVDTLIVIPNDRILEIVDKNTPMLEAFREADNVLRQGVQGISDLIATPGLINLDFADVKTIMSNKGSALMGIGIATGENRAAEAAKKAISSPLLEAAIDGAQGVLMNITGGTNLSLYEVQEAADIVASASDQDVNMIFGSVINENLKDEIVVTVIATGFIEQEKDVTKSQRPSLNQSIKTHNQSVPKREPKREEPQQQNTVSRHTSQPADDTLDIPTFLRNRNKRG

Bacillus subtilis [6] = test: Antibacterial activity against Bacillus subtilis 168 assessed as increase in average cell length at 7 uM incubated for 4 hrs in 9% of bacterial cells by fluorescent microscopy; type: functional
[7] = target: T1, Cell division protein FtsZ (Bacillus subtilis); test: Inhibition of Bacillus subtilis 168 FtsZ assessed as decrease FtsZ ring at mid bacterial cells at 7 uM for 4 hrs by immunostaining based fluorescent microscopy
HeLa [8] = test: Antiproliferative activity against human HeLa cells assessed as inhibition of cell proliferation at 50 uM incubated for 24 hrs by sulforhodamine B assay; type: functional; set-up: scale not given: the % may be the effect or the level left
HeLa [9] = test: Antiproliferative activity against human HeLa cells assessed as inhibition of cell proliferation at 300 uM incubated for 24 hrs by sulforhodamine B assay; type: functional; set-up: scale not given: the % may be the effect or the level left
[10] = target: T2, Cell division protein FtsZ (Escherichia coli K-12) (UniProt P0A9A6); test: Inhibition of KCl-induced Escherichia coli BL21 FtsZ polymerization at 40 uM incubate for 10 min followed by KCl stimulation by spectrofluorimeter based light-scattering assay
T2 sequence (whole entry): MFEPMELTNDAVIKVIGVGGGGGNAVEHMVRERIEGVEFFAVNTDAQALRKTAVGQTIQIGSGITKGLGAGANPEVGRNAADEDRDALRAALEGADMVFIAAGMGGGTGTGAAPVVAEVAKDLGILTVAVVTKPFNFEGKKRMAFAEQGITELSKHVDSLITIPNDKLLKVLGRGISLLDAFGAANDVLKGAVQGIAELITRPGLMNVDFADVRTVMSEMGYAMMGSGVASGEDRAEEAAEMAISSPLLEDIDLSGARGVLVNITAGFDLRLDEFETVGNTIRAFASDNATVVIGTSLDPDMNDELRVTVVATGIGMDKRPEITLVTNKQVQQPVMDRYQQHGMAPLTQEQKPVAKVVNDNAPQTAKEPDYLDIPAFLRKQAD

Bacillus subtilis [11] = test: Antibacterial activity against Bacillus subtilis 168 assessed as bacterial growth inhibition at 10 uM by spectrophotometric method; type: functional; settings: read-out: GI
[12] = target: T1, Cell division protein FtsZ (Bacillus subtilis); test: Inhibition of Bacillus subtilis 168 FtsZ assessed as effect on nucleoid segregation at 7 uM for 4 hrs by immunostaining based fluorescent microscopy
[13] = target: T2, Cell division protein FtsZ (Escherichia coli K-12); test: Inhibition of Escherichia coli BL21 FtsZ assessed as inhibition of KCl-induced GTPase activity at 5 uM preincubated for 10 mins followed by KCl stimulation and measured after 10 mins by malachite green ammonium molybdate dye based spectroscopic analysis; settings: time 20.0 min
[14] = target: T2, Cell division protein FtsZ (Escherichia coli K-12); test: Binding affinity to Escherichia coli BL21 FtsZ assessed as hydrophobic probe ANS-FtsZ complex fluorescence quenching at 40 uM for 30 mins by fluorescence analysis
[15] = target: T2, Cell division protein FtsZ (Escherichia coli K-12); test: Binding affinity to Escherichia coli BL21 FtsZ assessed as hydrophobic probe ANS-FtsZ complex fluorescence quenching at 10 uM for 30 mins by fluorescence analysis
HeLa [16] = test: Antiproliferative activity against human HeLa cells assessed as inhibition of cell proliferation at 10 uM incubated for 24 hrs by sulforhodamine B assay; type: functional; set-up: scale not given: the % may be the effect or the level left
Tubulin (Homo sapiens) = Tubulin (Homo sapiens) (UniProt P68371+Q9H4B7+P0DPH7+P68366+Q13509+Q71U36+P04350+Q3ZCM7+P07437+P68363+Q9BQE3+Q6PEY2+Q13885+Q9BVA1+Q9BUF5); test: Inhibition of tubulin polymerization in human HeLa cells assessed as effect on interphase microtubule network at 80 to 150 uM for 24 hrs by […] staining based fluorescence microscopy; type: cell-based; settings: dose 80-150 µM
[17] = target: T1, Cell division protein FtsZ (Bacillus subtilis); test: Binding affinity to Bacillus subtilis FtsZ assessed as intrinsic tryptophan quenching incubated for 30 mins by fluorescence analysis
[18] = target: T2, Cell division protein FtsZ (Escherichia coli K-12); test: Binding affinity to Escherichia coli BL21 FtsZ assessed as hydrophobic probe ANS-FtsZ complex fluorescence quenching at 20 uM for 30 mins by fluorescence analysis
[19] = target: T1, Cell division protein FtsZ (Bacillus subtilis); test: Inhibition of Bacillus subtilis PL642 GFP-tagged FtsZ assessed as effect on nucleoid segregation at 7 uM for 4 hrs by immunostaining based fluorescent microscopy
[20] = target: T2, Cell division protein FtsZ (Escherichia coli K-12); test: Inhibition of KCl-induced Escherichia coli BL21 FtsZ polymerization at 80 uM incubate for 10 min followed by KCl stimulation by spectrofluorimeter based light-scattering assay
Bacillus subtilis [21] = test: Antibacterial activity against Bacillus subtilis 168 assessed as bacterial growth inhibition at 20 uM by spectrophotometric method; type: functional; settings: read-out: GI
Bacillus subtilis [22] = test: Antibacterial activity against Bacillus subtilis 168 assessed as minimum inhibitory concentration by spectrophotometric method; type: functional
Bacillus subtilis [23] = test: Antibacterial activity against Bacillus subtilis 168 assessed as bacterial growth inhibition by spectrophotometric method; type: functional, organism-based

O=C1c2ccccc2C(=O)c2c(O)c(O)cc(O)c21 [PURPURIN]
Activity (HeLa [1]): 72% | IC50 (HeLa [2]): 110 µM | inhibition of growth at 5 µM (Bacillus subtilis [3]): 47% | Activity (HeLa [4]): 45% | inhibition of growth at 150 µM (Escherichia coli): 47.8% | Activity [5]: Active | Activity (Bacillus subtilis [6]): 7 um | Activity [7]: Active | Activity (HeLa [8]): 28% | Activity (HeLa [9]): 89% | inhibition [10]: 31% | inhibition of growth at 10 µM (Bacillus subtilis [11]): 65% | Activity [12]: inactive | inhibition [13]: 11.5% | Activity [14]: 66% | Activity [15]: 35% | Activity (HeLa [16]): 6% | inhibition (Tubulin (Homo sapiens)): inactive | Activity [17]: Dose-Dependent Effect | Activity [18]: 45% | Activity [19]: inactive | inhibition [20]: 47% | inhibition of growth at 20 µM (Bacillus subtilis [21]): 86% | MIC (Bacillus subtilis [22]): 30 µM (≈ 7.69 µg/mL) | IC50 (Bacillus subtilis [23]): 5.5 µM
